The source of these data is PMC9688808, “Discovery of Novel Lin28 Inhibitors to Suppress Cancer Cell Stemness” (Cancers, 2022).

Data set [1] concerns the target T1, Lin28B CSD+ZKD (Homo sapiens, UniProt Q6ZN17).
T1 construct: Lin28B CSD+ZKD (aa7-204); His-tag; made in house; host or cells: Escherichia coli BL21
T1 sequence (Q6ZN17 7-204): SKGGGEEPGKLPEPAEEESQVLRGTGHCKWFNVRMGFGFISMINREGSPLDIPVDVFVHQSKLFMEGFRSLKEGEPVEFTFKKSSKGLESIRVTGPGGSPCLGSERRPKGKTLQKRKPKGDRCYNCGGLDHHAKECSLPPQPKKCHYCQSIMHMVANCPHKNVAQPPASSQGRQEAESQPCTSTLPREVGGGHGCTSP
In words: Fluorescence polarization (FP) assay, Lin28 CSD+ZKD with FAM-labeled Let-7 probe. Format: binding. As to conditions: 20 uM compound; for inhibition at 20 µM: read-out: inhibition of FP signals. An excerpt:
ZINC compounds were purchased from Enamine (Kyiv, Ukraine), Life Chemicals Ltd. (Kyiv, Ukraine), or Princeton Biomolecular Research (Princeton, NJ, USA) with >90% purity. Upon receiving the compounds, the molecular masses were validated by LC/MS/MS. His-tagged human Lin28B ZKD (aa110-174), Lin28B CSD+ZKD (aa7-204), and Lin28A ZKD (aa121-187) were expressed in Escherichia coli BL21 cells and purified by immobilized metal ion affinity chromatography (IMAC) with nickel nitrilotriacetic acid (NiNTA) resin and size exclusion chromatography (s75 10/300 GL) as we have previously reported.
The fluorescein amidites (FAM)-tagged Let-7 probe with the sequence of […] was purchased from Integrated DNA Technologies (IDT). The probe at the concentrations ranging from 1 nM to 50 uM was incubated with Lin28B (ZKD) or Lin28 (CSD+ZKD) to a final volume of 30 uL at room temperature for 20 min. To read the fluorescence, a TECAN 500 machine was used. Fluorescence polarization was calculated using the following equation: P=Fparrallel−Fperpendicular/Fparrallel+Fperpendicular where P is the fluorescence polarization reading, F parallel is the fluorescence intensity acquired from the parallel excitation plane, and F perpendicular is the fluorescence intensity acquired from the perpendicular direction of the excitation plane. The total fluorescence intensity is estimated using the following equation: F=Fparallel+2Fperpendicular
All the raw FP signal data from the TECAN 500 FP results were analyzed using Prism 8.0 (GraphPad, San Diego, CA, USA); normalized curves were plotted and IC50 values were estimated. All FP data were repeated three to five times.
To test the predicted compounds by CADD, we established an FP assay using both Lin28B ZKD and Lin28B CSD+ZKD to be incubated with a FAM-labeled Let-7 oligo containing the GGAG motif. To validate that the signals obtained from FP assays reflect the interaction between Lin28 and Let-7, we have tested: (1) 1 nM–50 uM FAM-labeled Let-7 probes with 10 uM Lin28 proteins and observed a dose-dependent reduction of FP signal; (2) 1 nM FAM labeled Let-7 probes with 1 nM–50 uM Lin28 proteins and observed a dose-dependent increase of FP signal; (3) 1 nM–50 uM doses of non-labeled Let-7 oligo to be incubated with 1 nM FAM probe and 10 uM Lin28 proteins, and observed a dose-dependent reduction of FP signal (Figure 2A,B).
We then screened all 163 molecules predicted by the CADD pipeline by using the FP assays with 10 uM of Lin28B ZKD protein and 1 nM of FAM-labeled Let-7 probe. Compounds Li71 and 1632 were also included and served as positive controls. We used 60% inhibition of FP signals by 20 uM of the tested compounds as the cut-off and found 15 active compounds achieving a hit rate of 9% (15/163) (Figure 2C left). […]
On the technique in general: In fluorescence polarisation assays a small probe gives low polarisation when free and higher when bound to something large.

In data set [2] the test system is DUNE cells. In words: Immunoblotting in DUNE cells. Particulars: 20uM, 24 hours, immunoblot. Format: cell-based. How it is done: There are several standard molecular techniques, including real-time qPCR, flow cytometry, cell proliferation, colony formation, and immunoblotting assays, that have been reported previously by our lab.
Figure S2. DUNE cells were treated with 20uM of indicated compounds for 24 hours. Protein lyses were collected and immunoblotted with Vinculin, SOX2, and HMGA2 antibodies. […]
Figure S3. DUNE or DUNE(KO) cells were treated with 20uM of indicated compounds for 24 hours. Protein lyses were collected and immunoblotted with Lin28b, SYP, CD44, and CD133 antibodies. Beta-actin was used as the loading control. […]

Details of data set [3]: method as in PMID 29874593. As to conditions: cited from earlier work.
Details of data set [4]: method as in PMID 29874593. As to conditions: at high uM concentrations; cited from earlier work.

Take `O=c1[nH]c(Nc2ccccc2O)cs1` [Ln15]: the inhibition (commonly the relative decrease from the control value, in per cent) at 20 µM in data set [1] was about 50%. The “protein expression of SYP” value in data set [2] is “suppressed”.

For the compound `CCc1cc(=O)[nH]c(Nc2cc(Cl)ccc2O)n1` [Ln7], the inhibition at 20 µM in data set [1] is about 50%.

On to `O=c1cccc(-c2nc3cc(F)c(O)cc3c(=O)[nH]2)[nH]1` [Ln115], for which the inhibition at 20 µM in data set [1] is about 20%. In data set [2], the “protein expression of SYP” value is “suppressed”.

Regarding `CCOc1cccc2c1N[C@@H](c1ccc(C(=O)O)cc1)[C@H]1CC=C[C@@H]21` [Li71, reference compound], in data set [1], the “inhibition of FP signals” value is on record as ~ 30%. Besides, the solubility result in data set [3] is recorded as “high solubility”. The cellular toxicity entry in data set [4] was “low cellular toxicity”.
